In test [1] the test system is A549 cells. Description: flow cytometer cell cycle analysis. The class given is cell-based, human. Particulars: in comparison with non-treated samples, p<0.01. (A flow cytometer gives signals particle by particle.)
In test [2] the test system is A549 cells. Description: cytoskeleton and nuclei staining, confocal microscope. Format: cell-based, human. Particulars: 24 hours, taxol 50 nM.

From US20110008447A1, “CARRIER COMPRISING NANODIAMOND” (NATIONAL CHIAO TUNG UNIVERSITY, priority 2009, published 2011) come the findings set out here.

For the compound `CC(=O)O[C@H]1C(=O)[C@@]2(C)[C@H]([C@H](OC(=O)c3ccccc3)[C@]3(O)C[C@H](OC(=O)[C@H](O)[C@@H](NC(=O)c4ccccc4)c4ccccc4)C(C)=C1C3(C)C)[C@]1(OC(C)=O)CO[C@@H]1C[C@@H]2O` [taxol], the G1/G0 cell population entry with A549 cells [1] is “significantly reduced”. Besides, in the test on A549 cells [2] (carrier 100 μg/mL), the “mitosis of the cells” value was “significantly enhancing mitosis”. Besides, the “effect on microtubules, spindle and chromosomes” value in the test on A549 cells [2] (carrier or ND 100 μg/mL) is “induced polymerization of microtubules, inhibited formation of spindle, and inhibited separation of chromosomes”.
